Reference: publication PMC11634579, “Network pharmacology, experimental validation and pharmacokinetics integrated strategy to reveal pharmacological mechanism of goutengsan on methamphetamine dependence” (Frontiers in Pharmacology, 2024)
Entries after “also recorded” stand apart in the source; their conditions may differ. Structures can show the parent of a compound that is named as a salt.

What was measured:
[1] = Pharmacokinetics and brain tissue distribution after gavage of GTS (UPLC-MS); type: in vivo, Babl/c mice; settings: mice; for time at which concentration in brain peaked: gavage of GTS infusion (2.75 g crude drug/mL, 2 mL/kg), sampling 0.5, 2, 4, 6, 9 h
Protocol: Animal experiments: Babl/c mice weighing 18–22 g (6–8 weeks old) with equal numbers of males and females, were provided by the Experimental Animal Center of Southern Medical University. The mice were maintained at room temperature (20 ± 2) °C, humidity (60 ± 5)%, 12 h light cycles, and provided an ad libitum diet. Thirty mice were randomly divided into 0.5, 2, 4, 6 and 9 h groups, with 6 mice each. An infusion at concentration of 2.75 g of GTS crude drug/mL was obtained, and the drug was administered by gavage at a dose of 2 mL GTS infusion drug/kg. After 0.5, 2, 4, 6 and 9 h of administration, the plasma and brain tissues in the 0.5, 2, 4, 6 and 9 h groups were collected. The plasma and brain tissue samples were processed in accordance with biological sample processing procedures.
Establishment of UPLC-MS method: An LCMS-8050 liquid chromatography mass spectrometer (Shimadzu, Japan) was operated with a horizon C18 column (100 × 2.1 mm, 3 µm). The mobile phase was 0.1% formic acid in water (A) - acetonitrile (B), and the gradient elution was 0–8 min, 10%–50% B; 8–9 min, 50%–10% B; 9–11 min, 10% B. The column temperature was 30°C, the injection volume was 5 μL, and flow rate was 0.4 mL min^−1. The mass spectrometry conditions included HPLC-MS/MS in […] full-scan and sub-ion scanning modes, an electrospray ionization source (ESI), positive and negative ion mode detection, and nebulizing gas of nitrogen (N2). The zeroed gas flow rate was 3 L min^−1, desolventization temperature was 526°C, and DL temperature was 250°C. Then the parent ion, daughter ion, collision energy, and polarity of the above components were determined (Table 2).

[2] = design: method as in Ru et al., 2014; settings: obtained from TCMSP database; ref Ru et al., 2014; cited from earlier work
SH-SY5Y cells = experiment: MTT detection of cell viability; type: cell-based, human; settings: 48 h
Protocol: (§1) SH-SY5Y cells were inoculated into a 96-well plate. […] After 48 h of incubation at 6 wells per concentration, MTT was added for 4 h. Then incubation was stopped, the liquid was discarded, and dimethyl sulfoxide was added. After horizontal shakening for 5 min, the absorbance at 490 nm was measured using an enzyme-linked immunosorbent assay (Elisa) reader ([Yang et al., 2018]).

[3] = MTT detection of cell viability; type: cell-based, human; settings: human, SH-SY5Y cells, 200 μmol ·L^−1, 48 h
Protocol: as §1

5-HT = experiment: Elisa detection of 5-HT in MA-induced SH-SY5Y cells; type: cell-based, human; settings: vs MA model group (100 μmol ·L^−1 MA, 48 h); 4x equivalent dose GTS-containing serum, MK-801 100 μmol ·L^−1
Protocol: (§2) An equal volume of the complete culture medium was added to the control group. The drug-containing culture medium (100 μmol ·L^−1 MA) was added to MA model group. […] After medication, all groups were continued for 48 h, photographed, and used for the next experiment.
(§3) The above SH-SY5Y cells were inoculated onto a 6-well plate, and cultured for 24 h. Then the culture medium was aspirated. The cells were rinsed with phosphate buffered salt (PBS) once. After PBS was removed, a hydrochloric acid solution was added. The cells were scraped to form cell suspension. After centrifugation, the supernatant was extracted, and the cAMP and 5-HT levels of the cells were detected according to the instructions of an Elisa reagent kit (Dakewei Biotechnology Co., Ltd.) ([Zhan et al., 2022]).

cAMP = experiment: Elisa detection of cAMP in MA-induced SH-SY5Y cells; type: cell-based, human; settings: vs MA model group (100 μmol ·L^−1 MA, 48 h); 4x equivalent dose GTS-containing serum, MK-801 100 μmol ·L^−1
Protocol: as §2, §3

[4] = tested on: pyramidal cells in hippocampal CA1; experiment: HE staining of rat hippocampal CA1 after CPP test; type: in vivo, Sprague-Dawley (SD) rats; settings: vs MA model group
Excerpt: After the CPP test, a cervical dislocation method was used to euthanize the rats. The brain tissue of each rat was cut along the midline of the sagittal plane in the head. […] The hippocampus consists of CA1, CA2, CA3, and CA4. Specifically, CA1 is mainly composed of […], and is more suitable for MA-dependent observation ([Zhong et al., 2012]). Therefore, the pyramidal cells in hippocampal CA1 were mainly observed after hematoxylin-eosin (HE) staining. The hippocampal CA1 after HE staining was observed under microscopy and then photographed.

MA-induced CPP effect = experiment: MA-dependent rat conditioned place preference (CPP) model; type: in vivo, Sprague-Dawley (SD) rats; settings: vs MA model group, GTS 11.00 g crude drug/kg i.p., MK-801 10 mg/kg i.p.
Protocol: Male Sprague-Dawley (SD) rats weighing 180–220 g (2 months old) were provided by the Experimental Animal Center of Southern Medical University. The rats were maintained at room temperature (20 ± 2) °C, humidity (60 ± 5)%, 12 h light cycles, and provided an ad libitum diet. Before commencing the experiment, the rats were allowed to acclimatize for a minimum of 3 days. The Southern Medical University Experimental Animal Ethics Committee approved all animal experiments, which were conducted in accordance with the National Institutes of Health Guide for the Care and Use of Laboratory Animals (NIH publication #85–23, revised 1985). […] An MA-dependent rat CPP model was established in our previous studies and MA was used at 2 mg/kg ([Li et al., 2018b]). […] Before administration, determine the dosing volume based on each rat’s body weight; for example, a 200 g rat would receive a 1 mL dose.
Given the scarcity and specificity of […], we decided to use a 4x equivalent dose of GTS as the therapeutic dose. Thus, in the current study, only one treatment dose group of GTS was selected.
The CPP exam was made up of three phases over the course of 10 days (Figure 5A). During the habituation phase (days 1–3), each rat was allowed to move freely firom the black to white compartment for 30 min each day. On day 3, rats were videotaped throughout a 15-min trial and their movement trajectories, time spent and total movement distances were recorded. The door was closed to keep the two compartments apart during the conditioning period (on days 4–9). […] Rats were given the same amount of physiological saline (s.c.) in each group after an 8-h break, and they were then promptly segregated into the black compartment for 1 h. […] At 0:00 a.m. on day 10 (testing phase), the formal CPP testing began, rats were videotaped throughout a 15-min trial using Noldus Ethovision XT 8.5 software, and their movement trajectories, time spent and total movement distances were recorded.

[5] = after oral administration of GTS
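For BBB (blood–brain–barrier) in this document: unitless TCMSP predicted score with screening cut-off BBB at least 0.3.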

Compound: COc1ccc([C@@H]2CC(=O)c3c(O)cc(O[C@@H]4O[C@H](CO[C@@H]5O[C@@H](C)[C@H](O)[C@@H](O)[C@H]5O)[C@@H](O)[C@H](O)[C@H]4O)cc3O2)cc1O [Hesperidin]
- exposure in plasma and brain [1, 5]: exposed in the plasma and brain; also recorded: absorbed into the bloodstream and distributed to brain tissues
- time at which concentration in brain peaked [1]: 4 h
- BBB (blood–brain–barrier) [2]: 0.82
- OB% (oral bioavailability) [2]: 32.75%

Compound: O=C1C[C@@H](c2ccc(O[C@@H]3O[C@H](CO)[C@@H](O)[C@H](O)[C@H]3O)cc2)Oc2cc(O)ccc21 [Liquiritin]
- detection in brain tissues [1, 5]: undetectable
- detection in plasma [1, 5]: detectable in plasma and at high levels
- BBB (blood–brain–barrier) [2]: 0.61
- OB% (oral bioavailability) [2]: 58.81%

Compound: CN[C@@H](C)Cc1ccccc1 [MA, Methamphetamine hydrochloride]
- maximum safe dose (SH-SY5Y cells): 100 µmol/L
- viability at 48 h, 200 μmol·L^−1 [3]: < 90%

Compound: C[C@]12N[C@H](Cc3ccccc31)c1ccccc12 [MK-801, Dizocilpine]
- level of 5-HT in SH-SY5Y cells (5-HT): same trend as GTS treatment group
- level of cAMP in SH-SY5Y cells (cAMP): same trend as GTS treatment group
- damage of pyramidal cells in hippocampal CA1 (HE staining) [4]: significantly reduced damage
- movement trajectory in CPP box after MA training (MA-induced CPP effect; once daily days 5–9): significantly decreased
- time spent in the white box after MA training (MA-induced CPP effect; n = 10): same trend as GTS treatment group
- total movement distances in the white box after MA training (MA-induced CPP effect; n = 10): same trend as GTS treatment group

Compound: CC[C@H]1CN2CC[C@]3(C(=O)Nc4ccccc43)[C@@H]2C[C@@H]1/C(=C\OC)C(=O)OC [Rhynchophylline]
- exposure in plasma and brain [1, 5]: exposed in the plasma and brain; also recorded: absorbed into the bloodstream and distributed to brain tissues
- time at which concentration in brain peaked [1]: 6 h
- BBB (blood–brain–barrier) [2]: 0.38
- OB% (oral bioavailability) [2]: 41.82%
